The assay concerns 3T3-L1. Kind of assay: [1-3H]-2-deoxy-D-glucose uptake in 3T3 L1 adipocytes. The arrangement: reference not given here. It is filed as functional, Mus musculus.

Regarding `O=C(OC[C@H]1O[C@@H](OC(=O)c2cc(O)cc(O)c2)[C@H](OC(=O)c2cc(O)cc(O)c2)[C@@H](OC(=O)c2cc(O)cc(O)c2)[C@@H]1OC(=O)c1cc(O)cc(O)c1)c1cc(O)cc(O)c1`, the Activity is listed as 30 Bq.

In turn, `O=C(O[C@H]1O[C@H](CO)[C@@H](OC(=O)c2cc(O)c(O)c(O)c2)[C@H](OC(=O)c2cc(O)c(O)c(O)c2)[C@H]1OC(=O)c1cc(O)c(O)c(O)c1)c1cc(O)c(O)c(O)c1` registered an Activity of 143 Bq.

As for `O=C(O[C@H]1O[C@H](CCl)[C@@H](OC(=O)c2cc(O)c(O)c(O)c2)[C@H](OC(=O)c2cc(O)c(O)c(O)c2)[C@H]1OC(=O)c1cc(O)c(O)c(O)c1)c1cc(O)c(O)c(O)c1`, the Activity was 181 Bq.

For the molecule `O=C(OC[C@H]1O[C@H](OC(=O)c2cc(O)c(O)c(O)c2)[C@H](OC(=O)c2cc(O)c(O)c(O)c2)[C@@H](OC(=O)c2cc(O)c(O)c(O)c2)[C@@H]1OC(=O)c1cc(O)c(O)c(O)c1)c1cc(O)c(O)c(O)c1`, the Activity was 145 Bq.

`O=C(OC[C@H]1O[C@H](OC(=O)c2cc(O)cc(O)c2)[C@H](OC(=O)c2cc(O)cc(O)c2)[C@@H](OC(=O)c2cc(O)cc(O)c2)[C@@H]1OC(=O)c1cc(O)cc(O)c1)c1cc(O)cc(O)c1` returned an Activity of 16 Bq.

Consider `O=C(OC[C@H]1O[C@@H](OC(=O)c2cc(O)c(O)c(O)c2)[C@H](OC(=O)c2cc(O)c(O)c(O)c2)[C@@H](OC(=O)c2cc(O)c(O)c(O)c2)[C@H]1OC(=O)c1cc(O)c(O)c(O)c1)c1cc(O)c(O)c(O)c1`, for which the Activity came to 19 Bq.

On to `O=C(OC[C@H]1O[C@@H](OC(=O)c2ccc(O)cc2)[C@H](OC(=O)c2ccc(O)cc2)[C@@H](OC(=O)c2ccc(O)cc2)[C@@H]1OC(=O)c1ccc(O)cc1)c1ccc(O)cc1`, for which the Activity was 27 Bq.

`O=C(OC[C@H]1O[C@@H](OC(=O)c2cc(O)c(O)c(O)c2)[C@H](OC(=O)c2cc(O)c(O)c(O)c2)[C@H](OC(=O)c2cc(O)c(O)c(O)c2)[C@@H]1OC(=O)c1cc(O)c(O)c(O)c1)c1cc(O)c(O)c(O)c1` returned an Activity of 34 Bq.

On to `C[C@H]1O[C@@H](OC(=O)c2cc(O)c(O)c(O)c2)[C@H](OC(=O)c2cc(O)c(O)c(O)c2)[C@@H](OC(=O)c2cc(O)c(O)c(O)c2)[C@@H]1OC(=O)c1cc(O)c(O)c(O)c1`, for which the Activity is on record as 15 Bq.

`O=C(OC[C@H]1O[C@H](OC(=O)c2cc(O)c(O)c(O)c2)C[C@@H](OC(=O)c2cc(O)c(O)c(O)c2)[C@@H]1OC(=O)c1cc(O)c(O)c(O)c1)c1cc(O)c(O)c(O)c1`: the Activity was 29 Bq.

With `O=C(OC[C@@H]1C[C@H](OC(=O)c2cc(O)c(O)c(O)c2)[C@@H](OC(=O)c2cc(O)c(O)c(O)c2)[C@H](OC(=O)c2cc(O)c(O)c(O)c2)O1)c1cc(O)c(O)c(O)c1`, the Activity is 30 Bq.

For `O=C(OC[C@H]1O[C@@H](OC(=O)c2cc(O)c(O)c(O)c2)C[C@@H](OC(=O)c2cc(O)c(O)c(O)c2)[C@@H]1OC(=O)c1cc(O)c(O)c(O)c1)c1cc(O)c(O)c(O)c1`, the Activity is given as 15 Bq.

For `O=C(O[C@@H]1OC[C@@H](OC(=O)c2cc(O)c(O)c(O)c2)[C@H](OC(=O)c2cc(O)c(O)c(O)c2)[C@@H]1OC(=O)c1cc(O)c(O)c(O)c1)c1cc(O)c(O)c(O)c1`, the Activity turned out to be 7 Bq.

Consider `O=C(OC[C@H]1O[C@H](OC(=O)c2ccc(O)c(O)c2)[C@H](OC(=O)c2ccc(O)c(O)c2)[C@@H](OC(=O)c2ccc(O)c(O)c2)[C@@H]1OC(=O)c1ccc(O)c(O)c1)c1ccc(O)c(O)c1`, for which the Activity came to 10 Bq.

`O=C(OC[C@H]1O[C@H](OC(=O)c2cc(O)c(O)c(O)c2)[C@H](OC(=O)c2cc(O)c(O)c(O)c2)[C@H](OC(=O)c2cc(O)c(O)c(O)c2)[C@@H]1OC(=O)c1cc(O)c(O)c(O)c1)c1cc(O)c(O)c(O)c1` gave an Activity of 23 Bq.

`O=C(OC[C@H]1O[C@@H](OC(=O)c2cc(O)c(O)c(O)c2)[C@@H](OC(=O)c2cc(O)c(O)c(O)c2)[C@@H](OC(=O)c2cc(O)c(O)c(O)c2)[C@@H]1OC(=O)c1cc(O)c(O)c(O)c1)c1cc(O)c(O)c(O)c1` returned an Activity of 19 Bq.

Molecule `CC(=O)OC[C@H]1O[C@H](OC(C)=O)[C@H](OC(C)=O)[C@@H](OC(C)=O)[C@@H]1OC(C)=O` returned an Activity of 31 Bq.

`O=C(O[C@H]1OC[C@@H](OC(=O)c2cc(O)c(O)c(O)c2)[C@H](OC(=O)c2cc(O)c(O)c(O)c2)[C@H]1OC(=O)c1cc(O)c(O)c(O)c1)c1cc(O)c(O)c(O)c1`: the Activity is on record as 124 Bq.

`O=C(O[C@H]1OC[C@@H](OC(=O)c2cc(O)c(O)c(O)c2)[C@H](OC(=O)c2cc(O)c(O)c(O)c2)[C@@H]1OC(=O)c1cc(O)c(O)c(O)c1)c1cc(O)c(O)c(O)c1` returned an Activity of 21 Bq.

With `O=C(OC[C@H]1O[C@@H](OC(=O)c2ccc(O)c(O)c2)[C@H](OC(=O)c2ccc(O)c(O)c2)[C@@H](OC(=O)c2ccc(O)c(O)c2)[C@@H]1OC(=O)c1ccc(O)c(O)c1)c1ccc(O)c(O)c1`, the Activity is 20 Bq.

As to `O=C(OC[C@H]1O[C@H](OC(=O)c2ccccc2)[C@H](OC(=O)c2ccccc2)[C@@H](OC(=O)c2ccccc2)[C@@H]1OC(=O)c1ccccc1)c1ccccc1`, the Activity was 34 Bq.

On to `O=C(O[C@@H]1OC[C@@H](OC(=O)c2cc(O)c(O)c(O)c2)[C@H](OC(=O)c2cc(O)c(O)c(O)c2)[C@H]1OC(=O)c1cc(O)c(O)c(O)c1)c1cc(O)c(O)c(O)c1`, for which the Activity amounted to 21 Bq.

The molecule `O=C(OC[C@@H]1C[C@H](OC(=O)c2cc(O)c(O)c(O)c2)[C@@H](OC(=O)c2cc(O)c(O)c(O)c2)[C@@H](OC(=O)c2cc(O)c(O)c(O)c2)O1)c1cc(O)c(O)c(O)c1` registered an Activity of 28 Bq.

As for `O=C(OC[C@H]1OC[C@H](OC(=O)c2cc(O)c(O)c(O)c2)[C@@H](OC(=O)c2cc(O)c(O)c(O)c2)[C@@H]1OC(=O)c1cc(O)c(O)c(O)c1)c1cc(O)c(O)c(O)c1`, the Activity was determined as 5 Bq.

`O=C(OC[C@H]1O[C@H](OC(=O)c2ccc(O)cc2)[C@H](OC(=O)c2ccc(O)cc2)[C@@H](OC(=O)c2ccc(O)cc2)[C@@H]1OC(=O)c1ccc(O)cc1)c1ccc(O)cc1` registered an Activity of 30 Bq.

In the case of `O=C(O[C@H]1OC[C@@H](OC(=O)c2cc(O)c(O)c(O)c2)[C@@H](OC(=O)c2cc(O)c(O)c(O)c2)[C@H]1OC(=O)c1cc(O)c(O)c(O)c1)c1cc(O)c(O)c(O)c1`, the Activity came to 10 Bq.

Turning to `C[C@H]1O[C@H](OC(=O)c2cc(O)c(O)c(O)c2)[C@H](OC(=O)c2cc(O)c(O)c(O)c2)[C@@H](OC(=O)c2cc(O)c(O)c(O)c2)[C@@H]1OC(=O)c1cc(O)c(O)c(O)c1`, the Activity is recorded as 115 Bq.

Turning to `O=C(OC[C@H]1O[C@H](OC(=O)c2cc(O)c(O)c(O)c2)[C@@H](OC(=O)c2cc(O)c(O)c(O)c2)[C@@H](OC(=O)c2cc(O)c(O)c(O)c2)[C@@H]1OC(=O)c1cc(O)c(O)c(O)c1)c1cc(O)c(O)c(O)c1`, the Activity stood at 20 Bq.

In turn, `O=C(OC[C@H]1O[C@H](OC(=O)c2cc(O)c(O)c(O)c2)[C@H](OC(=O)c2cc(O)c(O)c(O)c2)C[C@@H]1OC(=O)c1cc(O)c(O)c(O)c1)c1cc(O)c(O)c(O)c1` showed an Activity of 11 Bq.

On to `O=C(OC[C@H]1O[C@@H](OC(=O)c2cc(O)c(O)c(O)c2)[C@H](OC(=O)c2cc(O)c(O)c(O)c2)C[C@@H]1OC(=O)c1cc(O)c(O)c(O)c1)c1cc(O)c(O)c(O)c1`, for which the Activity was found to be 7 Bq.

As to `O=C(O[C@@H]1OC[C@@H](OC(=O)c2cc(O)c(O)c(O)c2)[C@@H](OC(=O)c2cc(O)c(O)c(O)c2)[C@H]1OC(=O)c1cc(O)c(O)c(O)c1)c1cc(O)c(O)c(O)c1`, the Activity was determined as 12 Bq.

In turn, `OC[C@H]1O[C@H](O)[C@H](O)[C@@H](O)[C@@H]1O` displayed an Activity of 34 Bq.

`O=C(OC[C@H]1O[C@H](OC(=O)c2cc(O)c(O)c(O)c2)[C@H](OC(=O)c2cc(O)c(O)c(O)c2)[C@@H](OC(=O)c2cc(O)c(O)c(O)c2)[C@H]1OC(=O)c1cc(O)c(O)c(O)c1)c1cc(O)c(O)c(O)c1` had an Activity of 22 Bq.

Take `CC(=O)OC[C@H]1O[C@@H](OC(C)=O)[C@H](OC(C)=O)[C@@H](OC(C)=O)[C@@H]1OC(C)=O`: the Activity is reported as 24 Bq.

`O=C(OC[C@H]1OC(OC(=O)c2cc(O)c(O)c(O)c2)[C@H](OC(=O)c2cc(O)c(O)c(O)c2)[C@@H](OC(=O)c2cc(O)c(O)c(O)c2)[C@@H]1OC(=O)c1cc(O)c(O)c(O)c1)c1cc(O)c(O)c(O)c1` (single isomer, unassigned) [PENTAGALLOYL GLUCOSE]: the Activity came to 107 Bq.

For `O=C(OC1OC[C@H](OC(=O)c2cc(O)c(O)c(O)c2)[C@H](OC(=O)c2cc(O)c(O)c(O)c2)[C@H]1OC(=O)c1cc(O)c(O)c(O)c1)c1cc(O)c(O)c(O)c1` (single isomer, unassigned; 63), the Activity was found to be 23 Bq.

For `O=C(OC1OC[C@H](OC(=O)c2cc(O)c(O)c(O)c2)[C@H](OC(=O)c2cc(O)c(O)c(O)c2)[C@H]1OC(=O)c1cc(O)c(O)c(O)c1)c1cc(O)c(O)c(O)c1` (single isomer, unassigned; 65), the Activity is 14 Bq.

`O=c1oc2c(O)c(O)cc3c(=O)oc4c(O)c(O)cc1c4c23` [ELLAGIC ACID]: the Activity came out at 27 Bq.

`COC(=O)c1cc(O)c(O)c(O)c1` [GALLIC ACID METHYL ESTER] displayed an Activity of 20 Bq.

Turning to `O=C(O)c1cc(O)c(O)c(O)c1` [GALLIC ACID], the Activity is given as 31 Bq.

These data come from ChEMBL document CHEMBL1147667, “Synthesis and structure-activity relationship study of antidiabetic penta-O-galloyl-D-glucopyranose and its analogues” (2006).
